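Grown in 96-well plates, cells were treated for 48 hours with each compound at five concentrations. Insufficient inhibition: endpoint recorded as highest concentration tested. The concentration for 50% growth inhibition is given as GI50. At the TGI there is no net growth.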
Key:
Test in all cases: NCI tumour cell line growth inhibition, 48 h
[1] = tested on: 786-0 renal
[2] = tested on: A498 renal
[3] = tested on: A549 NSCLC
[4] = tested on: ACHN renal
[5] = tested on: BT-549 breast
[6] = tested on: CAKI-1 renal
[7] = tested on: CCRF-CEM leukemia
[8] = tested on: DU-145 prostate
[9] = tested on: EKVX NSCLC
[10] = tested on: HCC-2998 colon
[11] = tested on: HCT-116 colon
[12] = tested on: HCT-15 colon
[13] = tested on: HL-60(TB) leukemia
[14] = tested on: HOP-62 NSCLC
[15] = tested on: HS 578T breast
[16] = tested on: HT29 colon
[17] = tested on: IGROV1 ovarian
[18] = tested on: K-562 leukemia
[19] = tested on: KM12 colon
[20] = tested on: LOX IMVI melanoma
[21] = tested on: M14 melanoma
[22] = tested on: MALME-3M melanoma
[23] = tested on: MCF7 breast
[24] = tested on: MDA-MB-231 breast
[25] = tested on: MDA-MB-435
[26] = tested on: MOLT-4 leukemia
[27] = tested on: NCI-H226 lung
[28] = tested on: NCI-H23 lung
[29] = tested on: NCI-H460 lung
[30] = tested on: NCI-H522 lung
[31] = tested on: NCI/ADR-RES ovarian
[32] = tested on: OVCAR-3 ovarian
[33] = tested on: OVCAR-4 ovarian
[34] = tested on: OVCAR-5 ovarian
[35] = tested on: OVCAR-8 ovarian
[36] = tested on: PC-3 prostate
[37] = tested on: RPMI-8226 leukemia
[38] = tested on: RXF 393 renal
[39] = tested on: SF-268 CNS
[40] = tested on: SF-295 CNS
[41] = tested on: SF-539 CNS
[42] = tested on: SK-MEL-2 melanoma
[43] = tested on: SK-MEL-28 melanoma
[44] = tested on: SK-MEL-5 melanoma
[45] = tested on: SK-OV-3 ovarian
[46] = tested on: SN12C renal
[47] = tested on: SNB-19 CNS
[48] = tested on: SNB-75 CNS
[49] = tested on: SW-620 colon
[50] = tested on: TK-10 renal
[51] = tested on: U251 CNS
[52] = tested on: UACC-257 melanoma
[53] = tested on: UACC-62 melanoma
[54] = tested on: UO-31 renal
[55] = tested on: COLO 205 colon
[56] = tested on: HOP-92 NSCLC

## C=CC(=O)N1CCN(CCCn2c(=O)c(-c3c(Cl)c(OC)cc(OC)c3Cl)cc3cnc(NC)nc32)CC1
[1]
  GI50: 1.32 µM
  TGI: 17.2 µM
[2]
  TGI: 1.81 µM
[3]
  GI50: 4.41 µM
  TGI: 19.7 µM
[4]
  GI50: 0.71 µM
  TGI: 11.6 µM
[5]
  GI50: 0.681 µM
  TGI: 16 µM
[6]
  GI50: 0.782 µM
  TGI: 13.6 µM
[7]
  GI50: 2.04 µM
  TGI: 11.9 µM
[8]
  GI50: 2.69 µM
  TGI: 17.7 µM
[9]
  GI50: 4.38 µM
  TGI: 19.6 µM
[10]
  GI50: 10.9 µM
  TGI: 24.6 µM
[11]
  GI50: 2.63 µM
  TGI: 17.1 µM
[12]
  GI50: 2.63 µM
  TGI: 15 µM
[13]
  GI50: 2.8 µM
  TGI: 29 µM
[14]
  GI50: 5.56 µM
  TGI: 19.3 µM
[15]
  GI50: 2.25 µM
  TGI: 51.8 µM
[16]
  GI50: 4.4 µM
  TGI: 20 µM
[17]
  GI50: 0.888 µM
  TGI: 13.8 µM
[18]
  GI50: 5.96 µM
  TGI: > 100 µM
[19]
  GI50: 4.61 µM
  TGI: 19.9 µM
[20]
  GI50: 1.67 µM
  TGI: 15 µM
[21]
  GI50: 1.67 µM
  TGI: 16.8 µM
[22]
  GI50: 1.7 µM
  TGI: 12.5 µM
[23]
  GI50: 8.06 µM
  TGI: 31.8 µM
[24]
  GI50: 3.52 µM
  TGI: 14.6 µM
[25]
  GI50: 2.74 µM
  TGI: 13.8 µM
[26]
  GI50: 1.83 µM
  TGI: > 100 µM
[27]
  GI50: 0.0408 µM
  TGI: 20.7 µM
[28]
  GI50: 5.57 µM
  TGI: 20.9 µM
[29]
  GI50: 3.22 µM
  TGI: 19 µM
[30]
  GI50: 2.51 µM
  TGI: 14.6 µM
[31]
  GI50: 7.12 µM
  TGI: 67.6 µM
[32]
  GI50: 5.6 µM
  TGI: 20.4 µM
[33]
  GI50: 1.14 µM
  TGI: 25 µM
[34]
  GI50: 15.8 µM
  TGI: 33.5 µM
[35]
  GI50: 3.95 µM
  TGI: 22.9 µM
[36]
  GI50: 2.5 µM
  TGI: 11.4 µM
[37]
  GI50: 1.03 µM
  TGI: 4.09 µM
[38]
  GI50: 1.33 µM
  TGI: 12.9 µM
[39]
  GI50: 3.02 µM
  TGI: 21.3 µM
[40]
  GI50: 3.54 µM
  TGI: 16.5 µM
[41]
  GI50: 1.58 µM
  TGI: 9.5 µM
[42]
  GI50: 1.13 µM
  TGI: 6.31 µM
[43]
  GI50: 7.07 µM
  TGI: 20.9 µM
[44]
  GI50: 1.65 µM
  TGI: 12.3 µM
[45]
  GI50: 2.18 µM
  TGI: 8.38 µM
[46]
  GI50: 3.13 µM
  TGI: 16.2 µM
[47]
  GI50: 7.32 µM
  TGI: 20.7 µM
[48]
  TGI: 9.36 µM
[49]
  GI50: 4.07 µM
  TGI: 34.2 µM
[50]
  GI50: 1.75 µM
  TGI: 16.6 µM
[51]
  GI50: 2.57 µM
  TGI: 17 µM
[52]
  GI50: 3.8 µM
  TGI: 18 µM
[53]
  GI50: 2.79 µM
  TGI: 15.1 µM
[54]
  GI50: 0.849 µM
  TGI: 12.4 µM

## COc1ccc(/C(C)=C(\c2ccc(Cl)cc2)c2ccc(OCCN3CCCCC3)cc2)cc1
[1]
  GI50: 0.746 µM
  TGI: 1.9 µM
[2]
  GI50: 4.73 µM
  TGI: 10.4 µM
[3]
  GI50: 4.51 µM
  TGI: 10.2 µM
[4]
  GI50: 5.13 µM
  TGI: 9.61 µM
[5]
  GI50: 3.19 µM
  TGI: 7.55 µM
[6]
  GI50: 5.23 µM
  TGI: 12.4 µM
[7]
  GI50: 3.05 µM
  TGI: 14.4 µM
[55]
  GI50: 2.25 µM
  TGI: 7.05 µM
[8]
  GI50: 8.29 µM
  TGI: 26.6 µM
[9]
  GI50: 2.66 µM
  TGI: 8.79 µM
[10]
  GI50: 3.84 µM
  TGI: 8.1 µM
[11]
  GI50: 1.46 µM
  TGI: 5.24 µM
[12]
  GI50: 1.16 µM
  TGI: 4.56 µM
[13]
  GI50: 3.94 µM
  TGI: 12.6 µM
[14]
  GI50: 4.83 µM
  TGI: 9.96 µM
[56]
  GI50: 3.45 µM
  TGI: 7.55 µM
[15]
  GI50: 5.16 µM
  TGI: 13.3 µM
[16]
  GI50: 0.984 µM
  TGI: 3.87 µM
[17]
  GI50: 4.93 µM
  TGI: 11.2 µM
[18]
  GI50: 1.28 µM
  TGI: 10.4 µM
[19]
  GI50: 2.72 µM
  TGI: 16 µM
[20]
  GI50: 1.89 µM
  TGI: 6.2 µM
[21]
  GI50: 0.861 µM
  TGI: 2.36 µM
[22]
  GI50: 4.01 µM
  TGI: 8.49 µM
[23]
  GI50: 0.604 µM
  TGI: 5.71 µM
[24]
  GI50: 4.58 µM
  TGI: 9.22 µM
[25]
  GI50: 3.93 µM
  TGI: 8.56 µM
[26]
  GI50: 4.1 µM
  TGI: 19.5 µM
[27]
  GI50: 4.85 µM
  TGI: 9.7 µM
[28]
  GI50: 4.34 µM
  TGI: 10.2 µM
[29]
  GI50: 4.15 µM
  TGI: 9.34 µM
[30]
  GI50: 4.12 µM
  TGI: 8.66 µM
[31]
  GI50: 4.79 µM
  TGI: 9.86 µM
[32]
  GI50: 5.26 µM
  TGI: 11 µM
[33]
  GI50: 3.76 µM
  TGI: 9.51 µM
[34]
  GI50: 4.16 µM
  TGI: 9.55 µM
[35]
  GI50: 5.64 µM
  TGI: 11.8 µM
[36]
  GI50: 1.81 µM
  TGI: 6.59 µM
[37]
  GI50: 1.44 µM
  TGI: 6.64 µM
[38]
  GI50: 2.5 µM
  TGI: 7.29 µM
[39]
  GI50: 7.75 µM
  TGI: 26.8 µM
[40]
  GI50: 2.97 µM
  TGI: 7.54 µM
[41]
  GI50: 3.54 µM
  TGI: 7.68 µM
[42]
  GI50: 5.85 µM
  TGI: 10.7 µM
[43]
  GI50: 3.99 µM
  TGI: 8.4 µM
[44]
  GI50: 1.57 µM
  TGI: 5.44 µM
[45]
  GI50: 6.25 µM
  TGI: 12.3 µM
[46]
  GI50: 4.68 µM
  TGI: 9.53 µM
[47]
  GI50: 5.32 µM
  TGI: 12.6 µM
[48]
  GI50: 4.11 µM
  TGI: 10.6 µM
[49]
  GI50: 3.34 µM
  TGI: 8.09 µM
[50]
  GI50: 5.66 µM
  TGI: 13.8 µM
[51]
  GI50: 4.13 µM
  TGI: 8.77 µM
[52]
  GI50: 5.73 µM
  TGI: 10.8 µM
[53]
  GI50: 2.12 µM
  TGI: 6.45 µM
[54]
  GI50: 3.46 µM
  TGI: 7.4 µM

## COc1cc(C=C2C(=O)NC(=O)NC2=O)ccc1OCc1ccccc1
[5]
  GI50: 33.9 µg/mL
[7]
  GI50: 79.7 µg/mL
[56]
  GI50: 71.8 µg/mL
[20]
  GI50: 87.8 µg/mL
[28]
  GI50: 69.9 µg/mL
[37]
  GI50: 22.3 µg/mL
[54]
  GI50: 61.2 µg/mL

Reference: PubChem BioAssay (NCI)
